Experimental data from patent publication US12606508B2, “Cannabis extracts and uses thereof” (priority 2020, dated 2026).
pKi: −log10 of the molar value.

Columns and labels:
CD-1 mice = test: Formalin test in mice; type: in vivo; conditions: AM251 0.5 mg/kg i.p. or AM630 1 mg/kg i.p., 10 min before Δ^9-THCB 3 mg/kg i.p.
Procedure: Formalin test in mice. Male CD-1 mice 6-8 weeks (Envigo, Italy), were housed under controlled conditions (12 h light/12 h dark cycle; temperature 20-22 C; humidity 55-60%) with chow and tap water available ad libitum. All surgeries and experimental procedures were approved by the Animal Ethics Committee of University of Campania “L. Vanvitelli” (Naples). Animal care was in compliance with Italian (D.L. 116/92) and European Commission (O.J. of E.C. L358/1 18/12/86) regulations on the protection of laboratory animals. All efforts were made to minimize animal suffering and to reduce the number of animals used. All the experiments were performed in a randomized manner by the same operator blind to pharmacological treatments. Mice weighing 28-32 g were used after 1 week-acclimation period and received formalin (1.25% in saline, 30 μL) in the dorsal surface of one side of the hind-paw. Each mouse, randomly assigned to one of the experimental groups (n=5), was placed in a plexiglass cage and allowed to move freely for 15-20 min. A mirror was placed at a 45° angle under the cage to allow full view of the hind-paws. Lifting, favoring, licking, shaking and flinching of the injected paw were recorded as nocifensive behavior.^61 The total time of the nociceptive response was measured every 5 min for 60 minutes and expressed in min (mean±SEM). Mice received vehicle (0.5% DMSO in saline) or different doses of Δ^9-THCB (2, 3 and 5 mg/kg, i.p.) 20 min before formalin injection alone or in combination with AM251 (0.5 mg/kg, i.p.) or AM630 (1 mg/kg, i.p.). The antagonists were administered 10 min before drugs injection.
Statistics for in vivo experiments. Data are represented as means±standard error of the mean (S.E.M). Statistical analysis of the data was performed by analysis of variance two-way ANOVA followed by Bonferroni post hoc or Dunnett's multiple comparison test. All statistical analyses were performed by using GraphPAD software (San Diego, California). Differences were considered significant at p<0.05.

human CB1 receptor = molecular target: T1, human CB1 receptor (Homo sapiens, UniProt P21554); conditions: literature values used for comparison; read-out: Ki against CB1 receptor reported in the literature; cited from earlier work
T1 construct: Eurofins Discovery (contract assay)
T1 sequence (P21554 whole entry): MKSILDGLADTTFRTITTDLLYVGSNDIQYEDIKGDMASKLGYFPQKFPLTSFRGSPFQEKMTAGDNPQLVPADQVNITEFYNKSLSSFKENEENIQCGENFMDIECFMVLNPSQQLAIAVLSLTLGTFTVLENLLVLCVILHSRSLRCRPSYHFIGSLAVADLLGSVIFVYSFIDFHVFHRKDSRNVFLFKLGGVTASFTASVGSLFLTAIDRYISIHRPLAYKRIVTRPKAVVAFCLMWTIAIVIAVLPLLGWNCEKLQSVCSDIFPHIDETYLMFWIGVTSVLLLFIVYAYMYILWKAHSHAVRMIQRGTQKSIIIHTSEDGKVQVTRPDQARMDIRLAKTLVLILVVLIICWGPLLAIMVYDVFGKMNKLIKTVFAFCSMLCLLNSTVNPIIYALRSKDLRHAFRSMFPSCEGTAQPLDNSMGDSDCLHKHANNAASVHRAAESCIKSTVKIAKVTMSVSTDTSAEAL

human CB2 receptor = molecular target: T2, human CB2 receptor (Homo sapiens, UniProt P34972); conditions: cited from earlier work
T2 construct: Eurofins Discovery (contract assay)
T2 sequence (P34972 whole entry): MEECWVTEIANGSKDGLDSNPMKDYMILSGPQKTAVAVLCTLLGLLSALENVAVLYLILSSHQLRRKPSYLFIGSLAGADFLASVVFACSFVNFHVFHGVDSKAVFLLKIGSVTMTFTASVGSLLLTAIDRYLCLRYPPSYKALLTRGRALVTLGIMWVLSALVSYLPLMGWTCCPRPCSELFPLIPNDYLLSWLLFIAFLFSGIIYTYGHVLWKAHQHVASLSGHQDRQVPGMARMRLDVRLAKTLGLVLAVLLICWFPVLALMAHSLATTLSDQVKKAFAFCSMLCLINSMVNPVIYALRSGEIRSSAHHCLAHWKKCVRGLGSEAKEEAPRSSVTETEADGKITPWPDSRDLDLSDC

Compound: Cc1c(C(=O)NN2CCCCC2)nn(-c2ccc(Cl)cc2Cl)c1-c1ccc(I)cc1 [AM251]
- effect of antagonist pre-treatment on Δ^9-THCB analgesia in formalin test (CD-1 mice): prevented the analgesic effects induced by Δ^9-THCB

Compound: COc1ccc(C(=O)c2c(C)n(CCN3CCOCC3)c3cc(I)ccc23)cc1 [AM630]
- effect of antagonist pre-treatment on Δ^9-THCB analgesia in formalin test (CD-1 mice): prevented the analgesic effects induced by Δ^9-THCB

Compound: CC1=CC[C@@H]2[C@@H](C1)c1c(O)cc(C(C)(C)CCCCCCBr)cc1OC2(C)C [AM11542]
- pKi (human CB1 receptor): 9.96

Compound: C=C(C)[C@@H]1CCC(C)=C[C@H]1c1c(O)cc(CCCCC)cc1O [CBD, cannabidiol]
- affinity to CB2 receptor (in words, literature) (human CB2 receptor): poor affinity

Compound: CCCc1cc(O)c2c(c1)OC(C)(C)[C@@H]1CCC(C)=C[C@@H]21 [Δ^9-THCV, Δ^9-tetrahydrocannabivarin]
- pKi (human CB1 receptor): 7.12
